From patent publication US11098040B2, “Compounds and methods of use” (Ferro Therapeutics, Inc., priority 2018, dated 2021)
Where two headings read alike, the source gives them in different places.

Key:
[1] = test system: A549; experiment: Cell viability assay, A549 cells; format: cell-based; details: Homo sapiens
Experimental: Example 5: Inducer Compound Effect on Growth of A549 and KP4 Cells
Cell viability assay was performed to assess the potency of the compounds in cancer cell line KP4 (pancreatic ductal adenocarcinoma). Cells at a density of 1,000-10,000 cells/well were seeded in 96-well plates and incubated at 37° C. overnight. A series of 9 different concentrations of compound stocks (500×) were created by 3-fold serial dilution in DMSO. These compounds were further diluted in culture media and then added to cells so that the final DMSO concentration was equal to 0.25% or less. After 96 hours of incubation, 50 μL of CellTiter Glo reagent (Promega) was added to each well and luminescence was measured after 10 minutes using EnVision (PerkinElmer). All compounds were tested initially from 30 μM as the top concentration in duplicates (range of 4.6 nM-30 μM). […] Luminescence from cells treated with DMSO alone was set as Max and % of inhibition was calculated as follows: Inhibition %=(Max-Sample value)/Max*100. Data was analyzed using XL-fit software (ID Business Solutions Ltd.). IC50, relative IC50, or % of top inhibition was calculated. […]

[2] = test system: KP4; experiment: Cell viability assay (CellTiter Glo), pancreatic ductal adenocarcinoma KP4; format: cell-based, human
Procedure, shortened: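 Luminescent ATP readout (CellTiter Glo) after 96 h compound exposure, normalized to DMSO-treated cells as maximum. Compounds ran in duplicate, nine 3-fold steps from 30 μM down to 4.6 nM, final DMSO ≤0.25%; KP4 plated overnight at 1,000–10,000 cells/well. Outputs: IC50, relative IC50 or % top inhibition.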

[3] = Whole blood stability, mouse; format: in vitro ADME
Text: (§1) The results of the assay on stability in blood and IC50 values for pancreatic cancer cell line KP4 are given below in Table 24.

[4] = Whole blood stability, human; format: in vitro ADME
Text: as §1

[5] = test system: SJSA-1; experiment: Cell proliferation (Alamar Blue) assay, SJSA-1 osteosarcoma, with/without ferrostatin; format: cell-based, human; details: Homo sapiens
Experimental: (§2) Cell viability assay was performed to assess the potency of the compounds in human cancer cell lines 786-O (renal cell carcinoma) and SJSA-1 (osteosarcoma). Additional cell lines, such as those described above in Example 4 as well as various others, e.g., pancreatic cancer cell lines (Panc 02.13, BxPC-3, Panc 12, Panc 02.03, Panc 6.03, PSN-1, HPAC, and Capan-1) and prostate cancer cell lines (PC-3, DU145, 22Rv1, NCI-H660, BPH1, LNCaP, BM-1604, and MDA PCa 2b), were tested for select compounds as shown in Table 25.
(§3) Cells (SJSA-1, 786-O and A431) were seeded (5000 cells/100 μL/well) in 96-well tissue culture plate and incubated at 37° C./5% CO2 for 16-24 hours. The cells were then treated with compounds (25 μL of 5×). The compound concentrations were 10-0.0005 μM prepared in 3-fold serial dilutions with final DMSO concentration of 1%. The plates were then incubated for 24 h at 37° C./5% CO2 in a moist environment. Then Alamar Blue™ reagent (final concentration 1×-12.5 μL) was added to each well and incubated for 1.5 hours at 37° C./5% CO2. The plates were read on fluorescence reader at 540 nm excitation and 590 nm emission wavelengths. The IC50 values were subsequently determined using a sigmoidal dose-response curve (variable slope) in GraphPad Prism® 5 software.
(§4) Studies have shown that lipophilic antioxidants, such as ferrostatin, can rescue cells from GPX4 inhibition-induced ferroptosis. For instance, mesenchymal state GPX4-knockout cells can survive in the presence of ferrostatin, however, when the supply of ferrostatin is terminated, these cells undergo ferroptosis (see, e.g., Viswanathan et al., Nature 547:453-7, 2017). […] Accordingly, the ability of a molecule to induce ferroptotic cancer cell death, and that such ability is admonished by the addition of ferrostatin, is clear indication that the molecule is an GPX4 inhibitor.

[6] = test system: 786-O; experiment: Cell proliferation (Alamar Blue) assay, 786-O renal cell carcinoma, with/without ferrostatin; format: cell-based; details: Homo sapiens
Experimental: as §2, §3, §4

[7] = A549, Cell Line A549, read-out: IC50
[8] = Homo sapiens, KP-4, Cell Line KP4, read-out: IC50
[9] = Homo sapiens, KP-4, 96 h, pancreatic cancer cell line KP4, 96 hours, CellTiter Glo, read-out: IC50 μM KP4
[10] = A549, A549, read-out: IC50 for A549
[11] = SJSA-1, 24 h, Alamar Blue, 24 h, 2 μM ferrostatin, read-out: SJSA-1 (IC50, μM) 2 μM Ferrostatin
[12] = SJSA-1, 24 h, Alamar Blue, 24 h, without ferrostatin, read-out: SJSA-1 (IC50, μM) Without Ferrostatin
[13] = 786-0, 24 h, Alamar Blue, 24 h, 2 μM ferrostatin, read-out: 786-O (IC50, μM) 2 μM Ferrostatin
[14] = 786-0, 24 h, Alamar Blue, 24 h, without ferrostatin, read-out: 786-O (IC50, μM) Without Ferrostatin
[15] = 786-0, Cell Line 786-O, read-out: IC50
[16] = SJSA-1, Cell Line SJSA-1, read-out: IC50

SMILES | IC50 [1, 7] [µM] | IC50 [2, 8] [µM] | IC50 [6, 15] [µM] | further results
C=C(C)C(=O)N1[C@@H](c2ccc(N3CCOCC3)cc2)c2[nH]c3ccccc3c2C[C@@H]1C [Compound 229] | > 30 | > 30 |  | 
COC(=O)[C@H]1Cc2c([nH]c3ccccc23)[C@H](c2ccc(O)cc2)N1C(=O)CCl [Compound 265] | 25.4 |  |  | Whole Blood Stability % Remaining at 37° C. Mouse ([3]; 0 min): 100.0%; Whole Blood Stability % Remaining at 37° C. Mouse ([3]; 30 min): 75.5%; Whole Blood Stability % Remaining at 37° C. Mouse ([3]; 60 min): 61.6%; IC50 [2, 9]: 0.1 to 0.5 µM; Whole Blood Stability % Remaining at 37° C. Human ([4]; 0 min): 100.0%; Whole Blood Stability % Remaining at 37° C. Human ([4]; 30 min): 61.6%; Whole Blood Stability % Remaining at 37° C. Human ([4]; 60 min): 45.2%
C[C@H]1Cc2c([nH]c3ccccc23)[C@H](c2ccc(C3(O)COC3)cc2)N1C(=O)CCl [Compound 236] | 17.5 | 1.2 |  | IC50 ([2]; Cell Line KP4, read-out: IC50): > 1 µM
[2H]C([2H])(Cl)C(=O)N1[C@@H](c2ccc(C(=O)NC34CC5CC(CC(C5)C3)C4)cc2)c2[nH]c3ccccc3c2C[C@@H]1C(=O)OC [Compound 250] | 2.4 |  |  | 
CC(C)(C)OC(=O)c1ccc([C@H]2c3[nH]c4ccccc4c3C[C@H](CO)N2C(=O)CCl)cc1 [Compound 257] | 8.14 | 10.4 |  | 
CN(C)C(=O)[C@H]1Cc2c([nH]c3ccccc23)[C@H](c2ccc(N)cc2)N1C(=O)CCl [Compound 259] | 7.97 | 0.179 |  | IC50 ([2]; Cell Line KP4, read-out: IC50): 0.212 µM
CC[C@H]1Cc2c([nH]c3ccccc23)[C@H](c2ccc(N3CCOCC3)cc2)N1C(=O)CCl [Compound 117] | 4.71 |  |  | Whole Blood Stability % Remaining at 37° C. Mouse ([3]; 0 min): 100.0%; Whole Blood Stability % Remaining at 37° C. Mouse ([3]; 30 min): 92.3%; Whole Blood Stability % Remaining at 37° C. Mouse ([3]; 60 min): 45.8%; IC50 [2, 9]: < 0.01 µM; Whole Blood Stability % Remaining at 37° C. Human ([4]; 0 min): 100.0%; Whole Blood Stability % Remaining at 37° C. Human ([4]; 30 min): 80.5%; Whole Blood Stability % Remaining at 37° C. Human ([4]; 60 min): 70.3%
C[C@H]1Cc2c([nH]c3ccccc23)[C@H](c2ccc(N3CCOCC3)cc2)N1C(=O)/C=C/C(F)(F)F [Compound 230] | 22 | > 30 |  | 
C/C=C/C(=O)N1[C@@H](c2ccc(N3CCOCC3)cc2)c2[nH]c3ccccc3c2C[C@@H]1C [Compound 228] | > 30 | > 30 |  | 
C=CC(=O)N1[C@@H](c2ccc(C(=O)OC)cc2)c2[nH]c3ccccc3c2C[C@@H]1C(=O)OC [Compound 274] | 11.8 | 4.54 |  | 
C[C@H]1Cc2c([nH]c3ccc(Cl)cc23)[C@H](c2ccc(N3CCOCC3)cc2)N1C(=O)CCl [Example 120] |  | 0.362 |  | IC50 [1, 10]: 0.81 µM
C[C@H]1Cc2c([nH]c3ccc(Cl)cc23)[C@H](c2ccc(N3CCOCC3)cc2)N1C(=O)CCl [Compound 120] | 0.807 |  |  | IC50 [2, 9]: 0.1 to 0.5 µM
C#CCOc1ccc2[nH]c3c(c2c1)C[C@H](C(=O)OC)N(C(=O)CCl)[C@H]3c1ccc(C(=O)NC23CC4CC(CC(C4)C2)C3)cc1 [Compound 211] |  |  | 0.009 | IC50 [5, 11]: 5.92 µM; IC50 [5, 12]: 0.011 µM; IC50 [6, 13]: 3.94 µM; IC50 [6, 14]: 0.009 µM
COc1ccc2[nH]c3c(c2c1)C[C@H](C)N(C(=O)CCl)[C@H]3c1ccc(F)cc1 [Compound 281] |  |  | 0.206 | IC50 [5, 16]: 0.261 µM
C[C@H]1Cc2c([nH]c3ccccc23)[C@H](c2ccc(C3(O)CCOCC3)cc2)N1C(=O)CCl [Compound 237] | 1.86 | 0.458 |  | 
C#CC(=O)N1[C@@H](c2ccc(S(=O)(=O)NC3CC3)cc2F)c2[nH]c3ccccc3c2C[C@@H]1C [Compound 174] |  |  | 0.016 | IC50 [5, 11]: 2.32 µM; IC50 [5, 12]: 0.091 µM; IC50 [6, 13]: 5.09 µM; IC50 [6, 14]: 0.016 µM
C[C@H]1Cc2c([nH]c3ccccc23)[C@H](c2ccc(S(=O)(=O)NC3CCNCC3)cc2)N1C(=O)CCl [Compound 218, 4-((1S,3S)-2-(2-chloroacetyl)-3-methyl-2,3,4,9-tetrahydro-1H-pyrido[3,4-b]indol-1-yl)-N-(piperidin-4-yl)benzenesulfonamide] |  |  | 8.1 | IC50 [5, 16]: 1.4 µM
COC(=O)[C@H]1Cc2c([nH]c3ccccc23)[C@H](c2ccc(C(=O)OC(C)(C)C)cc2)N1C(=O)C(C)(C)CCl [Compound 264] | 4.45 | 8.69 |  | 
C[C@H]1Cc2c([nH]c3ccccc23)[C@@H](c2ccc(C(=O)Nc3ccccn3)cc2)N1C(=O)CCl (single isomer, unassigned) [Compound 160] |  |  | 1 | IC50 [5, 16]: 1.3 µM
C[C@H]1Cc2c([nH]c3ccc(C(C)(C)O)cc23)[C@H](c2ccc(N3CCOCC3)cc2)N1C(=O)CCl [Compound 235] | 7.18 | 0.041 |  | 
C[C@H]1Cc2c([nH]c3ccccc23)[C@@H](c2ccc(S(=O)(=O)NC3CCNCC3)cc2)N1C(=O)CCl [Compound 133, 4-((1R,3S)-2-(2-chloroacetyl)-3-methyl-2,3,4,9-tetrahydro-1H-pyrido[3,4-b]indol-1-yl)-N-(piperidin-4-yl)benzenesulfonamide2,2,2-trifluoroacetic acid] |  |  | > 10 | IC50 [5, 16]: > 10 µM
C=CC(=O)N1[C@@H](c2ccc(N3CCOCC3)cc2)c2[nH]c3ccccc3c2C[C@@H]1C [Compound 238] | > 10 | > 10 |  | 
COC(=O)c1ccc([C@H]2c3[nH]c4ccc(OC)cc4c3C[C@H](C)N2C(=O)CCl)cc1 [Compound 278] |  |  | 0.22 | IC50 [5, 16]: 0.14 µM
C[C@H]1Cc2c([nH]c3ccccc23)[C@H](c2ccc(S(=O)(=O)NC3CC3)cc2F)N1C(=O)CCl (single isomer, unassigned) [Compound 217] |  |  | 0.022 | IC50 [5, 16]: 0.028 µM
CC#CC(=O)N1[C@@H](c2ccc(C(=O)OC)cc2)c2[nH]c3ccccc3c2C[C@@H]1C(=O)OC [Compound 272] | 6.45 | 3.99 |  | 
COc1ccc2c(c1)C[C@H](C)N(C(=O)CCl)[C@H]2c1ccc(C(=O)NC2CC2)cc1 [Compound 280] |  |  | 0.21 | IC50 [5, 16]: 0.38 µM
CC(C)[C@H]1Cc2c([nH]c3ccccc23)[C@H](c2ccc(N3CCOCC3)cc2)N1C(=O)CCl [Compound 119] | 12.8 | 0.102 |  | 
COC(=O)c1ccc([C@H]2c3[nH]c4ccc(Cl)cc4c3C[C@H](C(=O)OC)N2C(=O)CCl)cc1 [Example 93] |  |  |  | IC50 [1, 10]: 0.25 µM
COC(=O)[C@H]1Cc2c([nH]c3ccccc23)[C@@H](c2ccc(C(=O)NC34CC5CC(CC(C5)C3)C4)cc2)N1C(=O)CCl [Compound 130, Methyl-(1R,3R)-1-(4-(((3S,5S,7S)-adamantan-1-yl)carbamoyl)phenyl)-2-(2-chloroacetyl)-2,3,4,9-tetrahydro-1H-pyrido[3,4-b]indole-3-carboxylate] |  |  | 1.8 | IC50 [5, 16]: 2.7 µM
C[C@H]1Cc2c([nH]c3ccccc23)[C@H](c2ccncc2)N1C(=O)CCl [Compound 171] |  |  | 0.162 | IC50 [5, 11]: > 10 µM; IC50 [5, 12]: 0.254 µM; IC50 [6, 13]: > 10 µM; IC50 [6, 14]: 0.162 µM
